Source: patent US6399658B1, “Composition containing ascorbic acid” (Sumitomo Pharmaceuticals Co., Ltd., priority 1996, dated 2002)

How the values were obtained:
[1] = test system: 3T3-L1 adipocytes; assay: Lactic acid increase induced by metformin hydrochloride in 3T3-L1 adipocytes; assay type: cell-based, mouse; conditions: for Lactic acid levels: additive 40 mM together with metformin hydrochloride 10 mM, medium after 24 hr, 30% O2/5% CO2
Protocol: Then the cells were differentiated to adipocytes according to the following procedure. […] The medium was changed with the same fresh medium every 48 hr until experiments. Lactic acid levels were measured by enzyme assay on lactate dehydrogenase and glutamate pyruvate transaminase, using Lactate Test BMY (Boehringer Mannheim). To the plate of the differentiated 3T3-L1 cells were added metoformin hydrochloride (10 mM) and various acids (40 mM), and the differentiated 3T3-L1 cells were incubated under 30% O2/5% CO2 condition for 24 hr. Lactic acid levels in the medium were measured.

[2] = test system: KKAy mice; assay: Reduction of blood sugar levels in diabetic model animals (KKAy mice), metformin hydrochloride + L-ascorbic acid study; assay type: in vivo, mouse; conditions: p.o. twice a day for 5 days; for Blood glucose levels: 2 hr after last administration, metformin hydrochloride 600, L-ascorbic acid 2900, metformin hydrochloride 600 + L-ascorbic acid 2900 mg/kg/dose
Text: . The experimental schedule was as follows.

[3] = test system: rat hepatocytes primary culture; assay: Inhibition of gluconeogenesis in rat hepatocytes primary culture; assay type: cell-based; conditions: 6 hr; for Glucose levels in the medium: Hanks solution containing 0.1% fructose
Protocol: Hepatocytes were isolated from a male Wistar rat. The isolated hepatocytes were grown on gelatin coated 24-well plate (3×10^5 cells/well) in Williams E medium containing 10 nM dexamethasone and 5% fetal calf serum under the 37° C., 5% CO2/95% air condition for 24 hr.
After the plates of hepatocytes primary culture were washed by phosphate buffer twice, the medium were changed to Hanks solution containing 0.1% fructose (depletion glucose). […] Glucose levels (mg/dL) in the medium were measured.

[4] = test system: KKAy mice; assay: Reduction of blood sugar levels in diabetic model animals (KKAy mice), metformin L-ascorbate study; conditions: p.o. twice a day for 5 days; for Blood glucose levels: 2 hr after last administration, metformin hydrochloride 600, L-ascorbic acid 800, metformin L-ascorbate 1400 mg/kg/dose
[5] = test system: 5/6 nephrectomy rats; conditions: p.o. twice a day for 4 days
Text: After 5-week old Wistar rats were acclimatized for 7 to 10 days, 2/3 of left kidney were removed. After the rats were bred and observed for 7 days, all right kidney was removed. After the rats were bred and observed for 7 to 10 days, the rats were used for experiments.
The experimental schedule was as follows. 5/6 Nephrectomy rats were divided into four groups according to their weight, blood urea nitrogen levels and serum creatinine levels after preliminary breeding and observation after purchase. […] The volume of administrated liquids was 5 mL/kg/dose. […] Blood was collected from tail vein under ether anesthetics at the day 5, and the blood lactic acid levels were measured.

SMILES | Lactic acid levels [1] [mg/dL] | Blood glucose levels [2] [mg/dL] | Blood glucose levels [4] [mg/dL] | Effect for reducing blood glucose levels (in words) [4] | also measured
O=C(O)CC(O)C(=O)O (stereo not shown) [Malic acid, malic acid] | 143 |  |  |  | 
O=C1O[C@H]([C@@H](O)CO)C(O)=C1O [L-ascorbic acid] | 73 | 367.0 ± 45.3 | 392.8 ± 45.3 |  | Effect on lactic acid increase induced by metformin hydrochloride (in words) ([1]; 40 mM with metformin hydrochloride 10 mM, 24 hr): prevented lactic acid increase induced by metformin hydrochloride; Glucose levels in the medium ([3]; 1 mM (each 1 mM for the combination)): 14.6 mg/dL; Glucose levels in the medium ([3]; 3 mM (each 3 mM for the combination)): 10.6 mg/dL; Effect on gluconeogenesis (in words) ([3]; 1 or 3 mM): Gluconeogenesis was reduced
O=C(O)CCC(=O)O [Succinic acid, succinic acid] | 145 |  |  |  | 
O=C(O)CC(O)(CC(=O)O)C(=O)O [Citric acid, citric acid] | 155 |  |  |  | 
CN(C)C(=N)NC(=N)N.Cl [Metformin hydrochloride, 1,1-dimethylbiguanide hydrochloride] |  | 286.5 ± 63.1 | 247.6 ± 30.2 | Significant effects for reducing blood glucose levels | Effect for reducing blood glucose levels (in words) [2]: Significant effects for reducing blood glucose levels
CN(C)C(=N)N=C(N)N.O=C1OC(C(O)CO)C(O)=C1O [Metformin L-ascorbate] |  |  | 270.3 ± 78.2 | Significant effects for reducing blood glucose levels | Blood lactic acid levels ([5]; blood at day 5, metformin hydrochloride 250 mg/kg/dose, metformin L-ascorbate 461 mg/kg/dose, metformin hydrochloride 250 + L-ascorbic acid 266 mg/kg/dose (same moles of metformin)): 40.2 ± 6.2 (†)(*) mg/dL; Blood lactic acid levels compared with metformin hydrochloride group (in words) ([5]; day 5): significantly lower than metformin hydrochloride group; Blood lactic acid levels compared with vehicle group (in words) ([5]; day 5): significantly higher than vehicle group
